What was measured:
hMOR = conditions: BRET G protein activation assay, cited from earlier work
human 5-HT2B receptors [1] = molecular target: T1, human 5-HT2B receptors (Homo sapiens, UniProt P41595); assay: 5-HT2B receptor phosphoinositide hydrolysis; type: cell-based; conditions: for 5-HT2B E/Imax (Imax): Imax is the percent maximum SB 206553, inverse agonist, response, value (SEM), N.A. = no activation or inactivation up to 30 μM; for In vitro functional activity at human 5-HT2BRs: phosphoinositide hydrolysis assay
T1 sequence (P41595 whole entry): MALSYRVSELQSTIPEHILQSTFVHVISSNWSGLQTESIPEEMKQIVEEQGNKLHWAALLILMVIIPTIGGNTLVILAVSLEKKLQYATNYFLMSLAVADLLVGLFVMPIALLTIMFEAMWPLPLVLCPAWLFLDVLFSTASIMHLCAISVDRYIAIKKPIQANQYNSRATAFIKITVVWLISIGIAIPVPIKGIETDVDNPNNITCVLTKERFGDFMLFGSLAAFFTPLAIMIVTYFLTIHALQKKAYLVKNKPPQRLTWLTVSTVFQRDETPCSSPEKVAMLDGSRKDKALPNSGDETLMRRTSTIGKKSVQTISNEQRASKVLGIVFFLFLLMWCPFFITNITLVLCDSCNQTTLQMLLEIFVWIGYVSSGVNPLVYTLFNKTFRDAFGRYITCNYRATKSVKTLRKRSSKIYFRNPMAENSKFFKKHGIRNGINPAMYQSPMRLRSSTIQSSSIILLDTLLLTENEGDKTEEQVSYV

human 5-HT1ARs [2] = molecular target: T2, human 5-HT1ARs (Homo sapiens, UniProt P08908); assay: In vitro 5-HT1A receptor cAMP signaling; type: cell-based; conditions: for 5-HT1A E/Imax: Emax is the percent maximum serotonin, agonist, response, value (SEM), N.A. = no activation or inactivation up to 30 μM
T2 sequence (P08908 1-422): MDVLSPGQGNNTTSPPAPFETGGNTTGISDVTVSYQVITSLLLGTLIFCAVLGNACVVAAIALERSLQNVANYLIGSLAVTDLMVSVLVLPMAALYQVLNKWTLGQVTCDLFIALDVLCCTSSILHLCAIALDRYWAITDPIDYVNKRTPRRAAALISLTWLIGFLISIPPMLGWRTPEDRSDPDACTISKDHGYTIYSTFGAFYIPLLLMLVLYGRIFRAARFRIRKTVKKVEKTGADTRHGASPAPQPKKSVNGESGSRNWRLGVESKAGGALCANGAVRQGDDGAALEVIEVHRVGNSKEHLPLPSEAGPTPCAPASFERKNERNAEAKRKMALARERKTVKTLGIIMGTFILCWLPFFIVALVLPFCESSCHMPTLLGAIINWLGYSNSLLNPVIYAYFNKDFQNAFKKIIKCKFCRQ

5-HT3Rs = molecular target: T3, 5-HT3Rs (Homo sapiens, UniProt P46098); assay: Radioligand competition binding at 5-HT3Rs
T3 sequence (P46098 24-478): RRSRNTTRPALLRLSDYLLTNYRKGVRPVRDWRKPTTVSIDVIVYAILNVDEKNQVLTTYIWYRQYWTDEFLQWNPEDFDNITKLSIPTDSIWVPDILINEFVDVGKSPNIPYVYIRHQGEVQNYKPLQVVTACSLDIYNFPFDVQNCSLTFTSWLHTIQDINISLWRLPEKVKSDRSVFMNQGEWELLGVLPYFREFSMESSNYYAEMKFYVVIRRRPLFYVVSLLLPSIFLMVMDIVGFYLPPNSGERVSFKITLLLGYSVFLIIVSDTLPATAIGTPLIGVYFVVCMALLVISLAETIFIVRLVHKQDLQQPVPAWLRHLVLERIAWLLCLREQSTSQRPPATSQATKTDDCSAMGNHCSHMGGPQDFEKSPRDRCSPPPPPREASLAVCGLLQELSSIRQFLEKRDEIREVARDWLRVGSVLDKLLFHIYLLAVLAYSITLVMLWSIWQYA

human 5-HT2B receptors [3] = molecular target: T1, human 5-HT2B receptors; type: binding; conditions: 100 nM alkaloid; [125I](±)DOI; CHO-K1 cells
5-HT1A receptors = conditions: cited from earlier work
adrenergic α1D receptors = conditions: read-out: Ki adrenergic α1D receptors; cited from earlier work
[4] = i.v., male rats
human 5-HT1ARs [5] = molecular target: T2, human 5-HT1ARs; assay: Radioligand competition binding at human 5-HT1ARs; conditions: present study versus 540 nM of ref 13
human 5-HT1A receptor = conditions: read-out: Ki human 5-HT1A receptor orthosteric binding site; cited from earlier work

Q: For `CC[C@@H]1CN2CC[C@@]3(O)C(=Nc4cccc(OC)c43)[C@@H]2C[C@@H]1/C(=C\OC)C(=O)OC` [7-hydroxymitragynine], which “hMOR Emax” value (hMOR) is on record?
A: […]

Q: With `C=C[C@H]1CN2CCc3c([nH]c4cccc(O)c34)[C@@H]2C[C@@H]1/C(=C\OC)C(=O)OC` [9-O-desmethylpaynantheine (gambireine), Methyl(E)-2-((2S,3R,12bS)-8-hydroxy-3-vinyl-1,2,3,4,6,7,12,12b-octahydroindolo[2,3-a]quinolizin-2-yl)-3-methoxyacrylate] as the molecule, how does the EC50 (human 5-HT2B receptors [1]) read?
A: 2340 nM

Q: And the “5-HT2B E/Imax (Imax)” value (human 5-HT2B receptors [1])?
A: 38 (10.3) %

Q: And the EC50 (human 5-HT1ARs [2])?
A: 865 nM

Q: What about the “5-HT1A E/Imax” value (human 5-HT1ARs [2]) of the same molecule?
A: 100 (0.08) %

Q: Which results are given for `CC[C@H]1CN2CCc3c([nH]c4cccc(O)c34)[C@@H]2C[C@@H]1/C(=C\OC)C(=O)OC` [9-O-desmethylspeciogynine (gambirine), Methyl(E)-2-((2S,3R,12bS)-3-ethyl-8-hydroxy-1,2,3,4,6,7,12,12b-octahydroindolo[2,3-a]quinolizin-2-yl)-3-methoxyacrylate]?
A: EC50 (human 5-HT2B receptors [1]): 1470 nM; 5-HT2B E/Imax (Imax) (human 5-HT2B receptors [1]): 45 (14.3) %; EC50 (human 5-HT1ARs [2]): 838 nM; 5-HT1A E/Imax (human 5-HT1ARs [2]): 99 (0.08) %

Q: Which “Percent displacement of radioligand, 5-HT3” value (shortened to “Percent displacement … 5-HT3”) (5-HT3Rs; 100 nM alkaloid) does the source give for `CC[C@@H]1CN2CCc3c([nH]c4cccc(O)c34)[C@@H]2C[C@@H]1/C(=C\OC)C(=O)OC` [9-hydroxycorynantheidine] here?
A: −1.3%

Q: What about the “Percent displacement … 5-HT3” value (5-HT3Rs; 10,000 nM alkaloid) of the same molecule?
A: 7.3%

Q: What about the “Percent displacement of radioligand, 5-HT2B” value (shortened to “Percent displacement … 5-HT2B”) (human 5-HT2B receptors [3]) of the same molecule?
A: 5.2%

Q: For `C/C=C1/CN2CCc3c([nH]c4ccccc34)[C@@H]2C[C@@H]1/C(=C/OC)C(=O)OC` [Geissoschizine methyl ether], which “Activity at 5-HT1A receptors” value (5-HT1A receptors) is on record?
A: potent antagonist

Q: What does the source list for `Cn1ccc2cc3c(cc21)CCN3C(=O)Nc1cccnc1` [SB 206553, reference compound]?
A: EC50 (human 5-HT2B receptors [1]): 15.3 nM; 5-HT2B E/Imax (Imax) (human 5-HT2B receptors [1]): 100%

Q: With `CC[C@@H]1CN2CCc3c([nH]c4ccccc34)[C@@H]2C[C@@H]1/C(=C\OC)C(=O)OC` [corynantheidine] as the molecule, how does the “Percent displacement … 5-HT3” value (5-HT3Rs; 100 nM alkaloid) read?
A: 6.2%

Q: What about the “Percent displacement … 5-HT3” value (5-HT3Rs; 10,000 nM alkaloid) of the same molecule?
A: 6.8%

Q: What about the “Percent displacement … 5-HT2B” value (human 5-HT2B receptors [3]) of the same molecule?
A: 14.8%

Q: And the Ki (adrenergic α1D receptors)?
A: 41 nM

Q: For `O=C1c2ccccc2S(=O)(=O)N1CCCCN1CCN(c2ncccn2)CC1` [ipsapirone, reference compound], which “5-HT1A E/Imax” value (human 5-HT1ARs [2]) is on record?
A: 82 (0.1) %

Q: For `CC[C@@H]1CN2CCc3c([nH]c4cccc(OC)c34)[C@@H]2C[C@@H]1/C(=C\OC)C(=O)OC` [mitragynine], which “Dose-normalized exposure (AUCinf/dose) relative to paynantheine” value [4] is on record?
A: 3.6 fold

Q: What about the “Dose-normalized exposure (AUCinf/dose) relative to speciogynine” value [4] of the same molecule?
A: 1.7 fold

Q: With `C=C[C@H]1CN2CCc3c([nH]c4cccc(OC)c34)[C@@H]2C[C@@H]1/C(=C\OC)C(=O)OC` [paynantheine, Methyl(E)-3-methoxy-2-((2S,3R,12bS)-8-methoxy-3-vinyl-1,2,3,4,6,7,12,12b-octahydroindolo[2,3-a]quinolizin-2-yl)acrylate] as the molecule, how does the “Percent displacement … 5-HT3” value (5-HT3Rs; 100 nM alkaloid) read?
A: −9.8%

Q: What about the “Percent displacement … 5-HT3” value (5-HT3Rs; 10,000 nM alkaloid) of the same molecule?
A: −0.8%

Q: And the “In vitro functional activity at human 5-HT2BRs” value (human 5-HT2B receptors [1])?
A: no agonist activity

Q: And the “Functional activity at hMOR” value (hMOR)?
A: low-potency, competitive antagonists

Q: Which “5-HT1A E/Imax” value (human 5-HT1ARs [2]) does the source give for `NCCc1c[nH]c2ccc(O)cc12` [serotonin, reference compound] here?
A: 100%

Q: Which “Functional activity at hMOR” value (hMOR) does the source give for `CC[C@@H]1CN2CCc3c([nH]c4cccc(OC)c34)[C@H]2C[C@@H]1/C(=C\OC)C(=O)OC` [speciociliatine] here?
A: low-potency, competitive antagonists

Q: What does the source list for `CC[C@H]1CN2CCc3c([nH]c4cccc(OC)c34)[C@@H]2C[C@@H]1/C(=C\OC)C(=O)OC` [speciogynine, Methyl(E)-2-((2S,3R,12bS)-3-ethyl-8-methoxy-1,2,3,4,6,7,12,12b-octahydroindolo[2,3-a]quinolizin-2-yl)-3-methoxyacrylate]?
A: Affinity for 5-HT1ARs relative to previously reported value (human 5-HT1ARs [5]): > 10 fold; EC50 (human 5-HT2B receptors [1]): 2020 nM; 5-HT2B E/Imax (Imax) (human 5-HT2B receptors [1]): 24.8 (6.9) %; In vitro functional activity at human 5-HT2BRs (human 5-HT2B receptors [1]): no agonist activity; Ki (human 5-HT1A receptor): 540 nM; Functional activity at hMOR (hMOR): low-potency, competitive antagonists

Q: For “Methyl(4S,4aR,13bS,14aS)-4-methyl-4a,5,7,8,13,13b,14,14a-octahydro-4H-indolo[2,3-a]pyrano[3,4-g]quinolizine-1-carboxylate [ajmalicine]”, which “Percent displacement … 5-HT3” value (5-HT3Rs; 100 nM alkaloid) is on record?
A: −2.5%

Q: What about the “Percent displacement … 5-HT3” value (5-HT3Rs; 10,000 nM alkaloid) of the same molecule?
A: 1.8%

Q: And the “Percent displacement … 5-HT2B” value (human 5-HT2B receptors [3])?
A: 6.2%

Q: And the Ki (human 5-HT1A receptor)?
A: 420 nM
